Earlier results on one compound are cited in patent US20090182054A1, “Topical compositions containing solubilized dicarboxylic acids” (priority 2008, published 2009).

For series [1], the system named is inflammatory papule lesions and erythema. The conditions noted are these: topical application.
For series [2] the following is noted: water, 25 deg C.

Molecules are shown by their SMILES.

Consider `O=C(O)CCCCCCCC(=O)O` [azelaic acid, Azelaic acid], for which the “inflammatory papule lesions and erythema” value in series [1] was “significantly reduce”. Besides, the solubility in series [2] is on record as 0.24 gram per 100 gram of water.
